Series [1] has as its target T1, 5-hydroxytryptamine receptor 2B (Homo sapiens, UniProt P41595). The experiment in a line: Agonist activity at 5HT2B receptor expressed in HEK293 cells assessed as intracellular calcium mobilisation up to 10 uM. The class given is functional, cell-based. On the technique in general: Calcium assays in cells follow changes in intracellular calcium, usually with a dye or a luminescent sensor.

Series [2] concerns the target T2, 5-hydroxytryptamine receptor 2A (Homo sapiens, UniProt P28223). The experiment in a line: Agonist activity at 5HT2A receptor expressed in HEK293 cells assessed as intracellular calcium mobilisation up to 10 uM. It is filed as functional, cell-based.
Series [3] addresses T3, 5-hydroxytryptamine receptor 2C (Homo sapiens) (UniProt P28335).
T3 sequence (whole entry): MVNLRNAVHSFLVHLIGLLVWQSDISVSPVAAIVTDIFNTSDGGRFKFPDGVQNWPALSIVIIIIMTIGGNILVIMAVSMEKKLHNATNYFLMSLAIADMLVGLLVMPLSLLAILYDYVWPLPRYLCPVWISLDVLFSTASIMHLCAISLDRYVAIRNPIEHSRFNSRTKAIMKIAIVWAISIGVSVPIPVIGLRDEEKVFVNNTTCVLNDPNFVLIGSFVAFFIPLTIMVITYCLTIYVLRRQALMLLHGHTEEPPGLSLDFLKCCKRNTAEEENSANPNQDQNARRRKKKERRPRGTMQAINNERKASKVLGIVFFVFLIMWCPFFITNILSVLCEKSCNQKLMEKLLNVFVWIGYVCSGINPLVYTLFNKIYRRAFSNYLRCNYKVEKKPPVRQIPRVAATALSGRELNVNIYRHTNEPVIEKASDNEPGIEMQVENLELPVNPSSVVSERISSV
The experiment in a line: Agonist activity at 5HT2C receptor expressed in HEK293 cells assessed as intracellular calcium mobilisation up to 10 uM. The class given is functional, cell-based.

Series [4] concerns the target T2, 5-hydroxytryptamine receptor 2A. The experiment in a line: Displacement of [3H]ketanserin from 5HT2A receptor expressed in HEK293 cells. It is filed as cell-based. On the technique in general: In a radioligand displacement assay an active substance lowers the binding of a labelled ligand.
The target in series [5] is T1, 5-hydroxytryptamine receptor 2B. The experiment in a line: Displacement of [3H]5-HT from 5HT2B receptor expressed in HEK293 cells. The class given is cell-based.
Series [6] has as its target T4, 5-hydroxytryptamine receptor 2C (Homo sapiens, UniProt P28335).
T4 sequence (P28335 whole entry): T3 sequence (whole entry)
The experiment in a line: Displacement of [3H]mesulergine from 5HT2C receptor expressed in HEK293 cells. It is filed as cell-based.

For series [7], the target named is T3, 5-hydroxytryptamine receptor 2C (Homo sapiens). The experiment in a line: Antagonist activity at 5HT2C receptor expressed in HEK293 cells assessed as blockade of 5-hydroxytryptamine-induced intracellular calcium mobilisation. It is filed as functional, cell-based.
Series [8] is described as follows: Volume of distribution in iv dosed rat. The class given is ADME, organism-based. The settings on record: in vivo, read-out: Vdss.
The nature of series [9]: Blood clearance in iv dosed rat. The settings on record: whole blood. It is filed as ADME, organism-based.

Each structure is given as a SMILES string. The source made the active and inactive calls. No cut-off for these calls is given here. Where only a bound is given, the exact number is not on record here.

T2 sequence (P28223 whole entry): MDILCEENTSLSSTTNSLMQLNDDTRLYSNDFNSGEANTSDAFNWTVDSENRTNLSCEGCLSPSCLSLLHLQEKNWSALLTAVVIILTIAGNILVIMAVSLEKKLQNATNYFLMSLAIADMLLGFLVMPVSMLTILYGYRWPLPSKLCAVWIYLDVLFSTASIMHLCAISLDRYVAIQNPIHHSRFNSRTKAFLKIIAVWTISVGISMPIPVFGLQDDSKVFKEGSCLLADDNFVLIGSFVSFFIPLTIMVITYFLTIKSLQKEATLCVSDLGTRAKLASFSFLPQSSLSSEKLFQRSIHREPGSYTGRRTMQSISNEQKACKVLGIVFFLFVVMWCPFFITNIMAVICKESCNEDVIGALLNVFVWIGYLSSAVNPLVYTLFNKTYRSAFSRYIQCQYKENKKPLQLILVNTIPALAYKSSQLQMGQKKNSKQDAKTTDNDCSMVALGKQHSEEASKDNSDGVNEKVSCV
T1 sequence (P41595 whole entry): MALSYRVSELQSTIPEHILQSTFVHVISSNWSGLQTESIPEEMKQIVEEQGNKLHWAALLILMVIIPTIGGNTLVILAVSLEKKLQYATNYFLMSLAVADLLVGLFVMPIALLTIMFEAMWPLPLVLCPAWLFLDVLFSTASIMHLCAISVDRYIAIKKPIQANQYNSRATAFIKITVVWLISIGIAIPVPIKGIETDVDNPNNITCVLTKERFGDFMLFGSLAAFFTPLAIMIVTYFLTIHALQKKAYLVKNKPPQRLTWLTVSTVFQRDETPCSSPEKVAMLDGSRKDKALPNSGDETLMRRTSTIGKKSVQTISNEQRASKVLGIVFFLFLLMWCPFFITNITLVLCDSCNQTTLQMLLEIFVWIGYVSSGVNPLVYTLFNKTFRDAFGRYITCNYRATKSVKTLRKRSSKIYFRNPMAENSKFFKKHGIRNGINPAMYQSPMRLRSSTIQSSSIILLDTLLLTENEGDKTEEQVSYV

`COc1ccc(N2CC=C(c3ccc(Cl)c(Cl)c3)C2=O)cc1OCCN1CCC(C)CC1`: the result in series [1], in series [2] and in [3] was inactive.
In the case of `COc1ccc(N2Cc3ccc(Cl)c(Cl)c3C2=O)cc1OCCN1CCC(C)CC1`, the result in [1], in series [2] and in series [3] was inactive. Further, the Ki in series [4] was 0.501 µM; in series [5] it was 0.1 µM; in series [6], 0.001 µM.
In the case of `COc1ccc(N2Cc3cc(Cl)cc(Cl)c3C2=O)cc1OCCN1CCC(C)(C)CC1`, the outcome in series [1], in series [2] and in series [3] was inactive. Besides, the Ki in series [4] was 0.398 µM; in [5], 0.251 µM; in [6], 0.002 µM.
`COc1ccc(N2Cc3c(Cl)cccc3C2=O)cc1OCCN1CCC(C)CC1`: the outcome in series [1], in series [2] and in series [3] was inactive. For the same molecule, the figures for the Ki in series [4] and in series [6] were over 1.58 µM and 0.126 µM, respectively. Besides, the Log Ki in series [5] (hek293) is over -6.7.
Regarding `COc1ccc(N2Cc3cccc(Cl)c3C2=O)cc1OCCN1CCCCC1`, the outcome in [1], in series [2] and in [3] was inactive. In addition, the Ki in [4] was 1 µM; in series [5] it was 0.316 µM; in series [6], 0.00398 µM.
As to `COc1ccc(N2Cc3cc(Cl)cc(Cl)c3C2=O)cc1OCCN1CCCC(C)C1` (stereo not given), the outcome in series [1], in series [2] and in series [3] was inactive. Further, the Ki in [4] was over 1.26 µM; in [5], 0.126 µM; in series [6], 0.00251 µM.
Take `COc1ccc(N2Cc3ccc(Cl)cc3C2=O)cc1OCCN1CCC(C)CC1`: the result in series [1], in [2] and in [3] was inactive. Moreover, the figures for the Ki in series [4], in [5] and in [6] were 0.794 µM, over 1 µM and 0.02 µM, respectively.
Take `COc1ccc(N2Cc3cc(Cl)ccc3C2=O)cc1OCCN1CCC(C)CC1`: the outcome in series [1], in series [2] and in [3] was inactive. Also, the Ki in series [4] is over 1 µM; in [5], over 1 µM; in [6], 0.0251 µM.
`COc1ccc(N2Cc3ccc(Cl)cc3C2=O)cc1OCCN1CCCCC1`: the outcome in [1], in series [2] and in series [3] was inactive. Besides, in series [7], the pKb came to 7.2. The Ki in series [4] is over 2.51 µM; in [5] it was over 1.58 µM; in series [6] it was 0.0158 µM.
As to `COc1ccc(N2Cc3cccc(F)c3C2=O)cc1OCCN1CCCCC1`, the outcome in series [1], in series [2] and in [3] was inactive. In addition, the Ki in series [4] is over 10 µM; in [5], over 3.16 µM; in series [6] it was 0.0794 µM.
As for `COc1ccc(N2Cc3cc(Cl)cc(Cl)c3C2=O)cc1OCCN1CCCCCC1`, the result in series [1], in series [2] and in series [3] was inactive. Also, the Ki was 0.631 µM in series [4], 0.2 µM in [5] and 0.00251 µM in [6].
In the case of `COc1ccc(N2Cc3c(Cl)cccc3C2=O)cc1OCCN1CCCCC1`, the outcome in series [1], in series [2] and in series [3] was inactive. Besides, the pKb in [7] came out at 6. Further, the Ki in series [4] is over 7.94 µM; in series [5], over 0.794 µM; in [6], 0.251 µM.
As for `COc1ccc(N2Cc3cc(F)cc(C(F)(F)F)c3C2=O)cc1OCCN1CCC(C)CC1`, the result in series [1], in series [2] and in [3] was inactive. Besides, the Ki is 0.251 µM in series [4], 0.251 µM in series [5] and 0.000398 µM in series [6].
Turning to `COc1ccc(N2Cc3cccc(C(F)(F)F)c3C2=O)cc1OCCN1CCC(C)CC1`, the result in series [1], in series [2] and in [3] was inactive. Also, the Ki in [4] was 0.631 µM; in series [5], 0.501 µM; in series [6], 0.00158 µM.
With `COc1ccc(N2Cc3cccc(C#N)c3C2=O)cc1OCCN1CCC(C)CC1`, the outcome in [1], in series [2] and in series [3] was inactive. The values for the Ki in series [4], in [5] and in [6] were over 3.16 µM, over 0.794 µM and 0.01 µM, respectively.
As for `COc1ccc(N2Cc3cccc(OC)c3C2=O)cc1OCCN1CCCCC1`, the outcome in series [1], in series [2] and in [3] was inactive. Also, the values for the Ki in series [4], in [5] and in [6] were over 6.31 µM, over 7.94 µM and 0.2 µM, respectively.
For the molecule `COc1ccc(N2Cc3cccc(Br)c3C2=O)cc1OCCN1CCC(C)CC1`, the outcome in series [1], in [2] and in series [3] was inactive. Besides, the pKb in [7] worked out at 9.3. Further, the results for the inhibition constant Ki in [4], in [5] and in series [6] were 0.631 µM, 0.158 µM and 0.000794 µM, respectively.
With `COc1ccc(N2Cc3c(F)c(F)cc(Cl)c3C2=O)cc1OCCN1CCC(C)CC1`, the result in [1], in series [2] and in series [3] was inactive. In addition, the inhibition constant Ki in series [4] is 0.501 µM; in series [5], 0.126 µM; in series [6], 0.002 µM.
In the case of `COc1ccc(N2Cc3c(c4cc(Cl)ccc4n3C)C2=O)cc1OCCN1CCC(C)CC1`, the outcome in series [1], in series [2] and in [3] was inactive.
As for `COc1ccc(N2Cc3cc(Cl)cc(Cl)c3C2=O)cc1OCCN1CCCCC1C` (stereo not given), the result in series [1], in series [2] and in series [3] was inactive. Besides, the results for the Ki in series [4], in series [5] and in series [6] were over 3.98 µM, over 2.51 µM and 0.01 µM, respectively.
In the case of `COc1ccc(N2Cc3cccc(Cl)c3C2=O)cc1OCCN1CCC(C)CC1`, the result in series [1], in series [2] and in series [3] was inactive. Moreover, in series [7], the pKb was 8.7. Further, the inhibitory constant (Ki) was 0.794 µM in [4], 0.126 µM in series [5] and 0.00158 µM in series [6].
For the molecule `COc1ccc(N2Cc3cccc(C)c3C2=O)cc1OCCN1CCC(C)CC1`, the outcome in series [1], in series [2] and in series [3] was inactive. For the same molecule, the inhibition constant (Ki) is over 6.31 µM in series [4], 0.2 µM in series [5] and 0.00251 µM in [6].
Consider `COc1ccc(N2Cc3cc(Cl)cc(Cl)c3C2=O)cc1OCCN1CCOCC1`, for which the result in series [1], in [2] and in series [3] was inactive. In addition, the Ki in [4] was over 7.94 µM; in series [5], over 1 µM; in series [6], 0.0126 µM.
In the case of `COc1ccc(N2Cc3cc(Cl)cc(Cl)c3C2=O)cc1OCCN1[C@H](C)CCC[C@@H]1C`, the outcome in series [1], in series [2] and in series [3] was inactive. Moreover, the figures for the inhibitory constant (Ki) in series [4], in [5] and in series [6] were 0.316 µM, 0.126 µM and 0.00631 µM, respectively.
As for `COc1ccc(N2Cc3cc(C)cc(C)c3C2=N)cc1OCCN1CCC(C)CC1`, the result in [1], in series [2] and in series [3] was inactive. Besides, the figures for the Ki in [4], in [5] and in series [6] were over 3.98 µM, over 3.16 µM and 0.126 µM, respectively.
In the case of `COc1ccc(N2C(=O)c3c(Cl)cccc3C2C)cc1OCCN1CCC(C)CC1` (stereo not given), the result in series [1], in series [2] and in series [3] was inactive. In series [8], the Vd was 8.2 L/kg. For the same molecule, the clearance in [9] came out at 3.18 L/h/kg. Further, the Ki in series [4] was over 1.26 µM; in series [5], 0.2 µM; in series [6], 0.00126 µM.
`CCOC(=O)c1ccc(N2Cc3ccccc3C2=O)cc1OCCN(CC)CC`: the result in series [1], in [2] and in [3] was inactive.
Regarding `COc1ccc(N2Cc3ccccc3C2=O)cc1OCCN1CCCCC1`, the outcome in series [1], in series [2] and in series [3] was inactive. Moreover, the Ki in series [4] was over 10 µM; in series [5] it was over 1.58 µM; in series [6], 0.0501 µM.

Broadly, the Ki is a measure of affinity in units of concentration, obtained from inhibition or displacement. A higher Ki goes with lower affinity. One may read the pKb as −log10 of the Kb, conventionally taken in molar units. For orientation: clearance means the rate of elimination divided by the concentration. Read a low clearance as inefficient removal.

The record behind these values is ChEMBL document CHEMBL1146272, “Isoindolone derivatives, a new class of 5-HT2C antagonists: synthesis and biological evaluation” (Bioorg Med Chem Lett, 2007).
